Source: BindingDB's records for patent US11185537 (Novartis, 2021)
pEC50: −log10 of the molar value.

What was measured:
[1] = biological target: DNA-binding protein Ikaros (Human, UniProt Q13422)
[2] = biological target: Zinc finger protein Helios (Homo sapiens, UniProt Q9UKS7)
Sequence of Zinc finger protein Helios (Q9UKS7 whole entry): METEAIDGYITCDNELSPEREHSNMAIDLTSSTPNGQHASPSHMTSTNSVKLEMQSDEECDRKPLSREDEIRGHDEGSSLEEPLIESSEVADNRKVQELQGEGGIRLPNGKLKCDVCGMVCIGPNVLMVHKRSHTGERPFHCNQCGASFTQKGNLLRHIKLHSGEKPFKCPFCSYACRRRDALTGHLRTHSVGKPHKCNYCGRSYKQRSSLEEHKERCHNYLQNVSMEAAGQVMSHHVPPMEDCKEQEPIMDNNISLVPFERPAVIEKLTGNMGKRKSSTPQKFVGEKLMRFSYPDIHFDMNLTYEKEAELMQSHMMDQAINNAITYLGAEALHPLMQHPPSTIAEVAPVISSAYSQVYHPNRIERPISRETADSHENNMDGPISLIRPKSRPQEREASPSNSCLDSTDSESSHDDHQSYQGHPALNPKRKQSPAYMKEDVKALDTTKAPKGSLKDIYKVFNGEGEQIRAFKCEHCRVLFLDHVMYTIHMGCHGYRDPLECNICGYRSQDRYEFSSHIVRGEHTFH

Sequence of DNA-binding protein Ikaros (Q13422 whole entry): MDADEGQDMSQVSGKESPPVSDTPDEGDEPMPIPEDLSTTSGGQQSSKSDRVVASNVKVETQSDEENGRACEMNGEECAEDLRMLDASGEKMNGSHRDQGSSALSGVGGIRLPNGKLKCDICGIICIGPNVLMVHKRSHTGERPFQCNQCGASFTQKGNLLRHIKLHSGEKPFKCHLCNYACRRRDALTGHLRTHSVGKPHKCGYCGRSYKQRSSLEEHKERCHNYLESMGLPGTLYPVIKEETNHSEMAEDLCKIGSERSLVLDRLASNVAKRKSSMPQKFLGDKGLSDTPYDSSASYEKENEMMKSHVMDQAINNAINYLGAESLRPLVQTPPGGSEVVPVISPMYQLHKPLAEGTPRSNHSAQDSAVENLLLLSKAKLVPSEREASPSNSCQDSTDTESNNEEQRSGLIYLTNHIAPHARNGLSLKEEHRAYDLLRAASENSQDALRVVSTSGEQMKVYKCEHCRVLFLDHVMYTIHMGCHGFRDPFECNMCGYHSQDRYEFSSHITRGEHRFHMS

Q: How did the pEC50 [1] turn out when `CN[C@H]1CC=CC[C@@H]1N(C)c1ccc2c(c1)CN(C1CCC(=O)NC1=O)C2=O` (some centres not stated) [US11185537, Compound Mix] was run?
A: The pEC50 was 6.92.

Q: What about the pEC50 [2] of the same compound?
A: The pEC50 was 6.64.
